According to the supplement of paper PMC5908809:

Key:
[1] = tested on: normal NK cells expanded with K562-aAPC; test: percent inhibition of viability; higher = more inhibition; details: 72 h, IL-2 2.5 ng/mL
Procedure: (§1)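 Drug sensitivity and resistance testing on K562-aAPC-expanded normal NK cells: 5 concentrations (10-fold steps over a 10,000-fold range), 72 h at 37 °C, viability by CellTiter-Glo normalised to DMSO and benzethonium chloride controls; DSS from the fitted curve.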

DERL-7 (IL-2 2.5 ng/mL) [2] = test: as above; details: 72 h
IMC-1 (IL-2 20 ng/mL) [3] = test: as above; details: 72 h
KAI3 (IL-2 2.5 ng/mL) [4] = test: as above; details: 72 h
KHYG-1 (IL-2 2.5 ng/mL) [5] = test: as above; details: 72 h
NK-92 (IL-2 2.5 ng/mL) [6] = test: as above; details: 72 h
NK-YS (IL-2 2.5 ng/mL) [7] = test: as above; details: 72 h
NKL (IL-2 2.5 ng/mL) [8] = test: as above; details: 72 h
SNK-6 (IL-2 2.5 ng/mL) [9] = test: as above; details: 72 h
YT (IL-2 2.5 ng/mL) [10] = test: as above; details: 72 h
[11] = tested on: normal primary NK cells, pool 1 (3 donors) (IL-2 2.5 ng/mL); test: as above; details: 72 h
[12] = tested on: normal primary NK cells, pool 1 (3 donors), resting (IL-2 0 ng/mL); test: as above; details: 72 h
[13] = tested on: normal primary NK cells, pool 2 (3 donors) (IL-2 2.5 ng/mL); test: as above; details: 72 h
[14] = tested on: normal primary NK cells, pool 3 (3 donors) (IL-2 2.5 ng/mL); test: as above; details: 72 h
[15] = tested on: normal NK cells expanded with K562-aAPC; test: drug sensitivity score (DSS) (DSS units); higher = more sensitive; extreme values may be limits of the assay; details: 72 h; IL-2 2.5 ng/mL
Procedure: as §1

DERL-7 (IL-2 2.5 ng/mL) [16] = test: as above; details: 72 h
IMC-1 (IL-2 20 ng/mL) [17] = test: as above; details: 72 h
KAI3 (IL-2 2.5 ng/mL) [18] = test: as above; details: 72 h
KHYG-1 (IL-2 2.5 ng/mL) [19] = test: as above; details: 72 h
NK-92 (IL-2 2.5 ng/mL) [20] = test: as above; details: 72 h
NK-YS (IL-2 2.5 ng/mL) [21] = test: as above; details: 72 h
NKL (IL-2 2.5 ng/mL) [22] = test: as above; details: 72 h
SNK-6 (IL-2 2.5 ng/mL) [23] = test: as above; details: 72 h
YT (IL-2 2.5 ng/mL) [24] = test: as above; details: 72 h
[25] = tested on: normal primary NK cells, pool 1 (3 donors) (IL-2 2.5 ng/mL); test: as above; details: 72 h
[26] = tested on: normal primary NK cells, pool 1 (3 donors), resting (IL-2 0 ng/mL); test: as above; details: 72 h
[27] = tested on: normal primary NK cells, pool 2 (3 donors) (IL-2 2.5 ng/mL); test: as above; details: 72 h
[28] = tested on: normal primary NK cells, pool 3 (3 donors) (IL-2 2.5 ng/mL); test: as above; details: 72 h

CC(C)C[C@@H](C(=O)N[C@H](C(=O)OC1CCCC1)c1ccccc1)[C@H](O)C(=O)NO [Tosedostat] (max concentration tested 10000 nM)
percent inhibition of viability [%]
Details | 1 nM | 10 nM | 100 nM | 1000 nM | 10000 nM
DERL-7 (IL-2 2.5 ng/mL) [2] | 0.91 | 28.1 | 38.8 | 57.2 | 60.4
IMC-1 (IL-2 20 ng/mL) [3] | 1.56 | 3.44 | 2.86 | -8.8 | 34.8
KAI3 (IL-2 2.5 ng/mL) [4] | -9.18 | -2.01 | 1.91 | 5.58 | 19.7
KHYG-1 (IL-2 2.5 ng/mL) [5] | -2.21 | -0.34 | 2.84 | 38.9 | 56
NK-92 (IL-2 2.5 ng/mL) [6] | -7.95 | -5.73 | 1.42 | 28.5 | 39.5
NK-YS (IL-2 2.5 ng/mL) [7] | 1.05 | 7.39 | 20.1 | 32.9 | 43.8
NKL (IL-2 2.5 ng/mL) [8] | 2.1 | 17 | 15 | 11.9 | 77.3
SNK-6 (IL-2 2.5 ng/mL) [9] | 15.8 | -24.2 | -35 | -26.7 | -18.3
YT (IL-2 2.5 ng/mL) [10] | -4.4 | 5.94 | -1.61 | 16.7 | 64.4
[1] | -1.88 | 6.85 | 7.57 | 15.4 | 28.1
[11] | 0.7 | -2.5 | 14.2 | 32.4 | 71.7
[12] | -9.12 | -11.9 | 19.5 | 68.8 | 83
[13] | -1.97 | -1.61 | 3.93 | 27.9 | 53.1
[14] | -8.47 | -19.6 | -9.22 | 2.66 | 28.9

Details | drug sensitivity score
DERL-7 (IL-2 2.5 ng/mL) [16] | 18
IMC-1 (IL-2 20 ng/mL) [17] | 1.21
KAI3 (IL-2 2.5 ng/mL) [18] | 1.15
KHYG-1 (IL-2 2.5 ng/mL) [19] | 7.83
NK-92 (IL-2 2.5 ng/mL) [20] | 5.36
NK-YS (IL-2 2.5 ng/mL) [21] | 8.33
NKL (IL-2 2.5 ng/mL) [22] | 6.28
SNK-6 (IL-2 2.5 ng/mL) [23] | 0
YT (IL-2 2.5 ng/mL) [24] | 6.11
[15] | 2.81
[25] | 8
[26] | 15.1
[27] | 6.04
[28] | 1.63

CC1=C(/C=C/C(C)=C/C=C/C(C)=C/C(=O)O)C(C)(C)CCC1 [Tretinoin] (max concentration tested 10000 nM)
percent inhibition of viability [%]
Details | 1 nM | 10 nM | 100 nM | 1000 nM | 10000 nM
DERL-7 (IL-2 2.5 ng/mL) [2] | 0.02 | -9.97 | -17.2 | -1.93 | 1.55
IMC-1 (IL-2 20 ng/mL) [3] | -5.65 | -8.65 | -8.92 | -15.6 | -11.9
KAI3 (IL-2 2.5 ng/mL) [4] | -2.48 | -3.65 | -1.2 | 3.75 | 16
KHYG-1 (IL-2 2.5 ng/mL) [5] | -3.1 | -0.61 | 11.5 | 20.8 | 33
NK-92 (IL-2 2.5 ng/mL) [6] | -0.77 | -12.9 | -9.35 | 0.15 | -0.14
NK-YS (IL-2 2.5 ng/mL) [7] | -3.42 | -0.23 | 9.86 | 11.1 | 28.9
NKL (IL-2 2.5 ng/mL) [8] | -12.8 | -0.36 | -1.84 | 17.5 | 39.7
SNK-6 (IL-2 2.5 ng/mL) [9] | -9.38 | 11.7 | 19.6 | -4.95 | 10.5
YT (IL-2 2.5 ng/mL) [10] | -1.46 | -2.61 | -3.8 | -1.99 | 3.09
[1] | -4.58 | -6.04 | -10.1 | -14.2 | -11.4
[11] | -4.29 | -17 | -11.3 | -4.32 | 10.6
[12] | -8.15 | -5.96 | -18.7 | 18.4 | 26.4
[13] | -8.71 | -3.05 | -10.2 | -13.1 | 1.08
[14] | -4.65 | -2.78 | -10.4 | -7.74 | -8.57

Details | drug sensitivity score
DERL-7 (IL-2 2.5 ng/mL) [16] | 0
IMC-1 (IL-2 20 ng/mL) [17] | 0
KAI3 (IL-2 2.5 ng/mL) [18] | 0.68
KHYG-1 (IL-2 2.5 ng/mL) [19] | 4.32
NK-92 (IL-2 2.5 ng/mL) [20] | 0
NK-YS (IL-2 2.5 ng/mL) [21] | 2.28
NKL (IL-2 2.5 ng/mL) [22] | 4.28
SNK-6 (IL-2 2.5 ng/mL) [23] | 0
YT (IL-2 2.5 ng/mL) [24] | 0
[15] | 0
[25] | 0
[26] | 3.02
[27] | 0
[28] | 0
